{"source": "patent US7579474B2", "about": "“Substituted piperidines as modulators of dopamine neurotransmission” (NSAB, Filial AF Neurosearch AB, Sverige, priority 2004, dated 2009)", "data": [{"system": "Locomotor activity in drug-naive rats", "assay": "Locomotor activity in drug-naive rats", "conditions": "drug-naive habituated rats, 11 μmol/kg, recorded between 30 and 60 minutes", "values": [{"smiles": "CCCN1CCC(O)(c2cccc(C(F)(F)F)c2F)CC1", "note": "[drawing 42]", "Locomotor activity 30-60 min": "3200 ± 1817 counts/30 min ± SEM"}, {"smiles": "CCCN1CCC(O)(c2ccc(F)c(C(F)(F)F)c2)CC1", "note": "[drawing 43]", "Locomotor activity 30-60 min": "213 ± 180 counts/30 min ± SEM"}, {"smiles": "CCCCN1CCC(O)(c2ccc(C)c(C(F)(F)F)c2)CC1", "note": "[drawing 41]", "Locomotor activity 30-60 min": "2092 ± 1437 counts/30 min ± SEM"}]}, {"system": "Locomotor activity in drug-naive rats", "assay": "Locomotor activity in drug-naive rats", "conditions": "drug-naive habituated rats, 33 μmol/kg, recorded between 30 and 60 minutes", "values": [{"smiles": "CCCN1CCC(O)(c2cccc(C(F)(F)F)c2F)CC1", "note": "[drawing 42]", "Locomotor activity 30-60 min": "1130 ± 344 (P = 0.06) counts/30 min ± SEM"}, {"smiles": "CCCN1CCC(O)(c2ccc(F)c(C(F)(F)F)c2)CC1", "note": "[drawing 43]", "Locomotor activity 30-60 min": "436 ± 246 counts/30 min ± SEM"}, {"smiles": "CCCCN1CCC(O)(c2ccc(C)c(C(F)(F)F)c2)CC1", "note": "[drawing 41]", "Locomotor activity 30-60 min": "1337 ± 141 counts/30 min ± SEM"}]}, {"system": "Locomotor activity in drug-naive rats", "assay": "Locomotor activity in drug-naive rats", "conditions": "drug-naive habituated rats, 100 μmol/kg, recorded between 30 and 60 minutes", "values": [{"smiles": "CCCN1CCC(O)(c2cccc(C(F)(F)F)c2F)CC1", "note": "[drawing 42]", "Locomotor activity 30-60 min": "541 ± 145 counts/30 min ± SEM"}, {"smiles": "CCCN1CCC(O)(c2ccc(F)c(C(F)(F)F)c2)CC1", "note": "[drawing 43]", "Locomotor activity 30-60 min": "258 ± 134 counts/30 min ± SEM"}, {"smiles": "CCCCN1CCC(O)(c2ccc(C)c(C(F)(F)F)c2)CC1", "note": "[drawing 41]", "Locomotor activity 30-60 min": "1365 ± 460 counts/30 min ± SEM"}]}, {"system": "Locomotor activity in drug-naive rats", "assay": "Locomotor activity in drug-naive rats", "conditions": "drug-naive rats, 11 μmol/kg, recorded for 60 minutes", "values": [{"smiles": "COCCN1CCC(O)(c2cccc(C(F)(F)F)c2F)CC1", "note": "[drawing 38]", "Locomotor activity 0-60 min": "6422 ± 1190 counts/60 min ± SEM"}, {"smiles": "CCN1CCC(O)(c2cccc(C(F)(F)F)c2F)CC1", "note": "[drawing 32]", "Locomotor activity 0-60 min": "7481 ± 1266 counts/60 min ± SEM"}, {"smiles": "COCCN1CCC(O)(c2cccc(Cl)c2Cl)CC1", "Locomotor activity 0-60 min": "7229 ± 769 counts/60 min ± SEM"}, {"smiles": "CCCCN1CCC(O)(c2cccc(C(F)(F)F)c2F)CC1", "note": "[drawing 39]", "Locomotor activity 0-60 min": "7668 ± 1716 counts/60 min ± SEM"}, {"smiles": "COCCN1CCC(O)(c2ccc(Cl)c(C(F)(F)F)c2)CC1", "note": "[drawing 36]", "Locomotor activity 0-60 min": "7945 ± 1230 counts/60 min ± SEM"}, {"smiles": "CCCN1CCC(O)(c2ccc(F)c(C(F)(F)F)c2)CC1", "note": "[drawing 40]", "Locomotor activity 0-60 min": "6114 ± 1032 counts/60 min ± SEM"}, {"smiles": "CCCN1CCC(O)(c2cccc(C(F)(F)F)c2F)CC1", "note": "[drawing 37]", "Locomotor activity 0-60 min": "11764 ± 3106 counts/60 min ± SEM"}, {"smiles": "CCCCN1CCC(O)(c2ccc(C)c(C(F)(F)F)c2)CC1", "note": "[drawing 34]", "Locomotor activity 0-60 min": "8188 ± 1055 counts/60 min ± SEM"}, {"smiles": "CCCN1CCC(O)(c2cccc(Cl)c2Cl)CC1", "note": "[drawing 35]", "Locomotor activity 0-60 min": "8897 ± 801 counts/60 min ± SEM"}]}, {"system": "Locomotor activity in drug-naive rats", "assay": "Locomotor activity in drug-naive rats", "conditions": "drug-naive rats, 33 μmol/kg, recorded for 60 minutes", "values": [{"smiles": "COCCN1CCC(O)(c2cccc(C(F)(F)F)c2F)CC1", "note": "[drawing 38]", "Locomotor activity 0-60 min": "6016 ± 1708 counts/60 min ± SEM"}, {"smiles": "CCN1CCC(O)(c2cccc(C(F)(F)F)c2F)CC1", "note": "[drawing 32]", "Locomotor activity 0-60 min": "11085 ± 2020 counts/60 min ± SEM"}, {"smiles": "COCCN1CCC(O)(c2cccc(Cl)c2Cl)CC1", "Locomotor activity 0-60 min": "7669 ± 1029 counts/60 min ± SEM"}, {"smiles": "CCCCN1CCC(O)(c2cccc(C(F)(F)F)c2F)CC1", "note": "[drawing 39]", "Locomotor activity 0-60 min": "3213 ± 825 counts/60 min ± SEM"}, {"smiles": "COCCN1CCC(O)(c2ccc(Cl)c(C(F)(F)F)c2)CC1", "note": "[drawing 36]", "Locomotor activity 0-60 min": "5041 ± 2022 counts/60 min ± SEM"}, {"smiles": "CCCN1CCC(O)(c2ccc(F)c(C(F)(F)F)c2)CC1", "note": "[drawing 40]", "Locomotor activity 0-60 min": "5906 ± 1340 counts/60 min ± SEM"}, {"smiles": "CCCN1CCC(O)(c2cccc(C(F)(F)F)c2F)CC1", "note": "[drawing 37]", "Locomotor activity 0-60 min": "7506 ± 905 counts/60 min ± SEM"}, {"smiles": "CCCCN1CCC(O)(c2ccc(C)c(C(F)(F)F)c2)CC1", "note": "[drawing 34]", "Locomotor activity 0-60 min": "2879 ± 503 counts/60 min ± SEM"}, {"smiles": "CCCN1CCC(O)(c2cccc(Cl)c2Cl)CC1", "note": "[drawing 35]", "Locomotor activity 0-60 min": "9739 ± 2025 counts/60 min ± SEM"}]}, {"system": "Locomotor activity in drug-naive rats", "assay": "Locomotor activity in drug-naive rats", "conditions": "drug-naive rats, 100 μmol/kg, recorded for 60 minutes", "values": [{"smiles": "COCCN1CCC(O)(c2cccc(C(F)(F)F)c2F)CC1", "note": "[drawing 38]", "Locomotor activity 0-60 min": "4296 ± 847 counts/60 min ± SEM"}, {"smiles": "CCN1CCC(O)(c2cccc(C(F)(F)F)c2F)CC1", "note": "[drawing 32]", "Locomotor activity 0-60 min": "11288 ± 1339 counts/60 min ± SEM"}, {"smiles": "COCCN1CCC(O)(c2cccc(Cl)c2Cl)CC1", "Locomotor activity 0-60 min": "7542 ± 844 counts/60 min ± SEM"}, {"smiles": "CCCCN1CCC(O)(c2cccc(C(F)(F)F)c2F)CC1", "note": "[drawing 39]", "Locomotor activity 0-60 min": "1630 ± 302 counts/60 min ± SEM"}, {"smiles": "COCCN1CCC(O)(c2ccc(Cl)c(C(F)(F)F)c2)CC1", "note": "[drawing 36]", "Locomotor activity 0-60 min": "4493 ± 1081 counts/60 min ± SEM"}, {"smiles": "CCCN1CCC(O)(c2ccc(F)c(C(F)(F)F)c2)CC1", "note": "[drawing 40]", "Locomotor activity 0-60 min": "5546 ± 441 counts/60 min ± SEM"}, {"smiles": "CCCN1CCC(O)(c2cccc(C(F)(F)F)c2F)CC1", "note": "[drawing 37]", "Locomotor activity 0-60 min": "3698 ± 294 counts/60 min ± SEM"}, {"smiles": "CCCCN1CCC(O)(c2ccc(C)c(C(F)(F)F)c2)CC1", "note": "[drawing 34]", "Locomotor activity 0-60 min": "2961 ± 928 counts/60 min ± SEM"}, {"smiles": "CCCN1CCC(O)(c2cccc(Cl)c2Cl)CC1", "note": "[drawing 35]", "Locomotor activity 0-60 min": "7499 ± 1620 counts/60 min ± SEM"}]}]}
